Entries after “also recorded” stand apart in the source; their conditions may differ.
Experiments:
Format in all cases: cell-based, rat
[1] = tested on: cultured hippocampal neurons; details: 100 nM, added 1 h before 50 μM Aβ; 48 h
[2] = tested on: actin stress fibers in astrocytes; assay: phalloidin staining of actin stress fibers, astrocytes; details: 10-1000 nM (FIG. 4A: 100 nM), 3 h
Experimental: (§1) Hippocampal cells were exposed to cytochalasin D and then fixed for 30 min in 4% paraformaldehyde/phosphate-buffered saline. Cell membranes were permeabilized by incubating for 5 min in a solution of 0.2% Triton X-100 in phosphate-buffered saline. Cells were then incubated for 30 min in PBS containing 0.005 U/ml fluorescein-phalloidin (Molecular Probes). Cells were rinsed in water and mounted in Vectashield antifade solution (Vector Laboratories) . Fluorescence images were acquired using a Sarastro 2000 confocal laser scanning microscope with a 60x oil-immersion objective. All images were acquired using identical settings for excitation intensity and detector gain.
(§2) FIG. 4. (A) Micrographs are confocal laser scanning microscope images of cultured hippocampal cells stained with fluorescein-labeled phalloidin. Cells were exposed for 3 h to either vehicle (control; left) or 100 nM cytochalasin D (right) prior to staining with phalloidin. The top micrographs show several neurons (arrowheads point to neuronal cell bodies); note reduction in phalloidin fluorescence in cytochalasin-treatedneurons.

[3] = tested on: cultured hippocampal neurons; assay: hydrogen peroxide neurotoxicity
Text: (§3) Dissociated embryonic rat hippocampal cell cultures were established and maintained. All procedures conformed with the NIH Guide for the Care and Use of Laboratory Animals and were approved by the University of Kentucky Animal Care and Use Committee. Cultures were maintained on a polyethyleneimine-coated substrate in plastic 35-mm dishes or 96 wall plates (for cell survival studies) or glass-bottom 35-mm dishes (for [Ca^2+ ]i imaging studies). The cell density was ^~ 70-100 cells/mm^2. Cells were maintained in Eagle's minimum essential medium supplemented 10% with fetal bovine serum and containing 20 mM sodium pyruvate. […] Aβ25-35 (Bachem, lot ZJ744) and Aβ1-40 (Bachem, lot ZK600) were stored in the lyophilized form, and stocks were prepared immediately before use by dissolving the peptide at a concentration of 1 mM in sterile distilled water. […] Glutamate and colchicine (Sigma) were prepared as 200-500x stocks in saline. Cytochalasins D and E (Sigma) and calcium ionophore 4-bromo-A23187 (Calbiochem) were prepared as 500x stocks in dimethyl sulfoxide. Vitamin E (α-tocopherol; Sigma) was prepared as a 500x stock in ethanol. Nordihydroguaiaretic acid and FeSo4 were prepared as 500x stocks in sterile water.
(§4) Neuronal survival was quantified by counting viable neurons in the same microscope fields (10x objective) immediately before experimental treatment and at time points after treatment. In addition, cells were grown in 96-well plates and Alamar blue fluorescence (Alamar Laboratories)was quantified by using a fluorescence plate reader. Alamar Blue is a non-fluorescent substrate that, after reduction by cell metabolites, becomes fluorescent. […] Viability of the remaining neurons was assessed by morphological criteria. Neutrons with intact neurites of uniform diameter and a soma with a smooth, round appearance were considered viable, whereas neurons with fragmented neurites and a vacuolated or swollen soma were considered nonviable. Survival values were expressed as percentages of the initial number of neurons present before experimental treatment. Statistical comparisons were made using ANOVA and Scheffe post-hoc tests for pairwise comparisons.
FIG. 15. […] Cultures were pretreated for 1 h with vehicle (Control), 100 nM cytochalasin D (CyD), or 50 μg/ml vitamin E (vE) and then exposed for 20 h to the indicated concentrations of hydrogen peroxide. Data are mean and SEM values of determinations made in four separate cultures.

[4] = tested on: actin filaments in cultured hippocampal neurons; assay: phalloidin fluorescence of actin filaments, neurons
Experimental: as §1, §2
(B) Cytochalasin D and glutamate cause a reduction in neuronal phalloidin fluorescence. […] Values represent the mean fluorescence intensity per neuronal cell body (±SEM; n=15-18). […]

[5] = tested on: cultured hippocampal neurons; assay: iron (FeSO4) neurotoxicity; details: 100 nM, 1 h preincubation
Text: as §3
Neuronal survival was quantified by counting viable neurons in the same microscope fields (10x objective) immediately before experimental treatment and at time points after treatment. In addition, cells were grown in 96-well plates and Alamar blue fluorescence (Alamar Laboratories)was quantified by using a fluorescence plate reader. Alamar Blue is a non-fluorescent substrate that, after reduction by cell metabolites, becomes fluorescent. Usually neurons that died in the time intervals (20-48 h) between examination points were absent. Viability of the remaining neurons was assessed by morphological criteria. Neutrons with intact neurites of uniform diameter and a soma with a smooth, round appearance were considered viable, whereas neurons with fragmented neurites and a vacuolated or swollen soma were considered nonviable. Survival values were expressed as percentages of the initial number of neurons present before experimental treatment. Statistical comparisons were made using ANOVA and Scheffe post-hoc tests for pairwise comparisons.
FIG. 8. Cultures were preincubated 1 h in the presence of 0.5% dimethylsulfoxide (control), 100 nM cytochalasin D, 50 μg/ml vitamin E (VitE), or 2 μM nordihydroguairetic acid (NDGA). Cultures were then exposed for 6 h to the indicated concentrations of FeSO4 and neuronal survival was quantified. Values represent the means and SEM of determinations made in four separate cultures. *P<0.001 compared to value for cultures exposed to 100 μM FeSO4 alone.

[6] = tested on: cultured hippocampal neurons; assay: calcium ionophore A23187 neurotoxicity; details: 100 nM, 1 h pretreatment
Text: as §3
as §4, with “Neutrons with intact neurites of uniform diameter and a soma with a smooth, round appearance were considered viable, whereas neurons with fragmented neurites and a vacuolated or swollen soma were considered nonviable.” left out, “Statistical comparisons were made using ANOVA and Scheffe post-hoc tests for pairwise comparisons.” left out
FIG. 7. Cultures were pretreated for 1 h with 0.2% dimethylsulfoxide (control) or 100 nM cytochalasin D. Calcium ionophore A23187 was then added at the indicated concentrations and neuronal survival was assessed 8 h later. […]

COc1cc2c(c(OC)c1OC)-c1ccc(OC)c(=O)cc1[C@@H](NC(C)=O)CC2 [Colchicine, colchicine, reference compound]
effect on Aβ neurotoxicity [1]: did not protect neurons against Aβ toxicity

C=C1[C@@H](C)[C@H]2[C@H](Cc3ccccc3)NC(=O)[C@]23[C@H](OC(C)=O)/C=C/[C@@](C)(O)C(=O)[C@@H](C)C/C=C/[C@H]3[C@@H]1O [Cytochalasin D, cytochalasin D]
actin stress fibers in astrocytes [2]: loss of actin stress fibers in astrocytes; also recorded: loss of stress fibers and cell rounding
effect on neuronal killing by hydrogen peroxide ([3]; 100 nM, 1 h pretreatment, 20 h): not altered; also recorded: does not protect neurons against hydrogen peroxide toxicity
antioxidant activity ([3]; suggested from hydrogen peroxide test): little or no antioxidant activity
phalloidin staining in neurons ([4]; 100 nM, 1 h): pronounced reduction in phalloidin staining in neurons; also recorded: loss of fluorescence
phalloidin staining in neurons ([4]; 10-1000 nM, 3 h): concentration-dependent reduction in phalloidin staining in neurons
effect on neuronal loss induced by iron [5]: not significantly altered
protection against A23187 neurotoxicity [6]: essentially identical to that in control cultures

Source: patent US5830910A (priority 1995, dated 1998)
